The values below come from US9034894B2, “Derivate, preparation method and use of 10-methoxycamptothecin” (NORTHEAST FORESTRY UNIVERSITY, priority 2011, dated 2015).

This experiment relates to ovarian cancer cell line 2774. As to the kind of experiment: thiazole blue colorimetric method, half inhibitory concentration on ovarian cancer cell line 2774. Format: cell-based.

What is called IC50 is the concentration that gives 50% inhibition. For `CCC(=O)OC1(CC)C(=O)OCc2c1cc1n(c2=O)Cc2cc3cc(OC)ccc3nc2-1` (stereo not shown) [10-methoxycamptothecin-20-O-propionate], it took 842 ± 50.1 µM to reach half-maximal inhibition (IC50).
With `CCC1(OC(=O)[C@H](C)NC(=O)OC(C)(C)C)C(=O)OCc2c1cc1n(c2=O)Cc2cc3cc(OC)ccc3nc2-1` (stereo partly drawn) [10-methoxycamptothecin-20-O—(N′-t-butoxycarbonyl)-L-alanine ester] the figure was 46.7 ± 21.7 µM; with `CCC1(OC(=O)[C@H](Cc2ccccc2)NC(=O)OC(C)(C)C)C(=O)OCc2c1cc1n(c2=O)Cc2cc3cc(OC)ccc3nc2-1` (stereo partly drawn) [10-methoxycamptothecin-20-O—(N′-t-butoxycarbonyl)-L-phenylalanine ester], 394 ± 21.7 µM; with `CCC1(OC(=O)[C@@H](NC(=O)OC(C)(C)C)C(C)C)C(=O)OCc2c1cc1n(c2=O)Cc2cc3cc(OC)ccc3nc2-1` (stereo partly drawn) [10-methoxycamptothecin-20-O—(N′-t-butoxycarbonyl)-L-valine ester], 1970 ± 93.6 µM.
